Data reported in paper PMC6504997 (ACS chemical biology, 2018).

Target: EXOSC3 (GST-EXOSC3, EXOSC3-WT) (Homo sapiens, UniProt Q9NQT5)
Assay: MST, inhibition of RNA binding
Settings: 3.12 μM long G-rich RNA (GGGAGGGAGGGAGAGGGA)

EXOSC3 (GST-EXOSC3, EXOSC3-WT), sequence (Q9NQT5 whole entry): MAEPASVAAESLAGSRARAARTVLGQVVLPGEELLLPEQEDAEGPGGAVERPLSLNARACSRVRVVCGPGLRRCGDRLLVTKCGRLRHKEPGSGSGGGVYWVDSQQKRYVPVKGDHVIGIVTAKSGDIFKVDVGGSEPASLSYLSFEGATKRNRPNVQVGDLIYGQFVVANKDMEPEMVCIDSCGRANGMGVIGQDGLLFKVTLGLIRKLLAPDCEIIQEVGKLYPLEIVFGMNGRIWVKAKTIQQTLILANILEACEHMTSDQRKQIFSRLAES

% inhibition at 50 μM: 54 ± 10%
SMILES: CC(C)(O)CCc1cccc(C(=O)N2Cc3ccccc3C(O)C2)c1 (stereo not shown) [ERD03, EXOSC3-RNA disrupting (ERD) compound 3]
